Reference: patent publication US6028115A, “Method for preventing sexually transmitted diseases” (priority 1999, dated 2000)

Assays:
[1] = tested on: MT2 cells; test: toxicity towards host cells of the virus assays; assay type: cell-based; conditions: concentration ranges used in the virus assays
Experimental: Serial dilutions of the test compounds (ranging from 0.1 μg/ml to 1.0 mg/ml) were added to HIV-1 virus such that 50 μl inoculum produced between 70 to 100 syncytia per well in untreated wells containing MT2 cells. The mHV-1 used was strain IIIs propagated in, and harvested from, a T4-lymphobastoid cell line. Each serial dilution of the test compound with virus was placed in each of three wells containing MT2 cells. The test compound alone was added to a fourth well containing MT2 cells to test for possible cytotoxicity. Triplicate virus control samples (no added test compounds but containing the equivalent amounts of the RPMI medium) were also included.

[2] = tested on: Lactobacillus gasseri; test: growth of normal vaginal flora bacterium in culture; assay type: cell-based; conditions: 0.5 mg/ml, anaerobic, 37° C.
Experimental: This example illustrates the effect of the inhibitory agents of this invention on the normal vaginal flora. Lactobacillus gasseri, which is found in normal vaginal flora, was obtained from the American Type Culture Collection (Rockville, Md.) and cultured under anaerobic conditions at 37° C. in the presence of the desired test agents. Control samples without added test agents were also run. Samples were collected at twenty minute intervals starting at 120 minutes after the start of incubation through 240 minutes. The absorbance at 550 nm was used to estimate the cell density and inhibitory effects. Nonoxynol-9 was also evaluated for comparison purposes.

[3] = tested on: HIV-1 virus; conditions: general statement, no assay details; cited from earlier work
[4] = tested on: sheep testicular hyaluronidase; test: hyaluronidase inhibition (hyaluronic acid hydrolysis); assay type: biochemical; conditions: pH 5.5, 10 minutes preincubation, 30 minutes at room temperature
Experimental: Hyaluronidase activity was quantitatively determined by measuring the extent of hyaluronic acid hydrolysis (i.e., the concentration of N-acetylglucosamine-reactive material formed from enzyme activity). Reaction mixtures (0.25 ml) containing the following were prepared: test compound (variable concentration); 0.1 M sodium acetate; 0.15 M sodium chloride; pH adjusted to 5.5; 7.2 units sheep testicular hyaluronidase (Sigma, Type III; H-2251) contained in an acetate buffer; 0.3 mg/ml hyaluronic acid (Sigma, from bovine vitreous humor; H-7630). The enzyme was preincubated with the test agent (1 mg/ml for screening purposes) for 10 minutes before starting the reaction by the addition of hyaluronic acid. The enzyme reaction was determined using the method of Aronson and Davidson (J. Biol. Chem. 241 437-440 (1967)). The reaction mixture was incubated for 30 minutes at room temperature. The reaction product was determined calorimetrically with p-dimethylaminobenzaldehyde (Reissig et al., J. Biol. Chem. 217 959-966 (1965)) by measuring the absorbance at 545 nm.
The reversibility of the hyaluronidase was determined by evaluating enzyme activity at different levels of enzyme (Ackermann and Potter, Proc. Soc. Exp. Biol. Med. 72 1-9 (1949)).

[5] = tested on: bovine papillomavirus type I; conditions: general statement; cited from earlier work

In the case of Nonoxynol-9, the “toxicity towards the host cells” value [1] is listed as “did show cytotoxic effects”, the “inhibition of growth of Lactobacillus gasseri” value [2] is listed as “about 60%” and the “inhibition of the enveloped virus HIV (statement)” value [3] is listed as “inhibits”. The IC50 [4] was “inactive” and the “inhibition of the non-enveloped papillomavirus (statement)” value [5] was “not”.
